One experiment relates to L. monocytogenes. Nature of the experiment: Log reduction according to EN 1276. It is filed as cell-based.
A further experiment has as its system S. typhimurium. Nature of the experiment: Log reduction according to EN 1276. It is filed as cell-based.
A further experiment deals with E. coli. In words: Log reduction according to EN 1276. It counts as cell-based. The text has this:
(§1) As shown in the Examples herein, the skin-care composition is active against bacteria and due to its content of hydrogen peroxide and lactate/lactic it is contemplated to be active against viruses as well, i.e. functioning as an anti-microbial composition. It has been shown that a synergistic effect between hydrogen peroxide and lactic acid in bacteria such as E. coli, P. aeruginosa, E. hirae, S. aureus, L. monocytogenes and S. typhimurium, see the following tables: […]

The test system of the next experiment is S. aureus. In words: Log reduction according to EN 1276. It counts as cell-based.
From the text: as §1

A further experiment concerns P. aeruginosa. Nature of the experiment: Log reduction according to EN 1276. It is filed as cell-based.
The test system of another experiment is E. hirae. Nature of the experiment: Log reduction according to EN 1276. It counts as cell-based.
The subject of the next experiment is bacteria, viruses. To be noted: 0.5% hydrogen peroxide; cited from earlier work.
The next experiment concerns spores. To be noted: cited from earlier work.
The next experiment deals with bacteria. To be noted: cited from earlier work.

Consider `OO` [1% H2O2, hydrogen peroxide], for which the results for the “Log reduction according to EN 1276” value in the experiment with L. monocytogenes and with S. typhimurium were 0.6 and 0.5, respectively.

Take `CC(O)C(=O)O` (stereo not shown) [1% LA, lactic acid]: the entries for the “Log reduction according to EN 1276” value with L. monocytogenes and in the experiment on S. typhimurium were 3.8 and over 5, respectively.

On to `CC(O)C(=O)O` (stereo not shown) [1% LA, pH 3, lactic acid], for which the entries for the “Log reduction according to EN 1276” value in the experiment with L. monocytogenes and in the experiment on S. typhimurium were 2.2 and over 5, respectively.

On to `OO` [3% H2O2, hydrogen peroxide], for which the “Log reduction according to EN 1276” value is given as over 5 in the experiment with E. coli, under 1 in the experiment on S. aureus, over 5 in the experiment with P. aeruginosa and 0.1 with E. hirae.

As for `OO` [hydrogen peroxide], the “time in which bactericidal and virucidal activity was demonstrated” value in the experiment on bacteria, viruses is 1 min. Also, the “concentration that will work against most spores” value in the experiment on spores was 3%.

On to `CC(O)C(=O)O` (stereo not shown) [lactic acid], for which, in the experiment on bacteria, the “concentration regarded as bactericidal” value is on record as at least 0.25 % w/w.

Values taken from US20230398051A1, “Anti-Microbial Skin-Care Composition Comprising Beta-Glucan and Natural Oil” (LANTMÄNNEN OATS AB, priority 2020, published 2023).
